Results reported in US9796714B2, “Calcium channel agonists” (University of Pittsburgh—Of the Commonwealth System of …, priority 2013, dated 2017).
Read-outs that look alike come from different tables or passages of the source.

Tests used:
[1] = target: T1, N-type Ca^2+ channel (Cav2.2) (Rattus norvegicus, UniProt Q02294); assay: N-type Ca2+ channel agonist activity, whole-cell perforated patch clamp of tail currents in tsA201 cells; assay type: cell-based
T1 construct: expressed in transfected cells; later also transient transfection
Experimental: tsA201 cells expressing calcium channels. […] For subsequent evaluation of effects on N-, P/Q-, or L-type channels, tsA-201 cells were transiently transfected with Cav2.2, Cav2.1, or Cav1.3, in combination with Cavβ3 and […] (Addgene, Cambridge Mass.) using FuGENE 6 (Life Technologies, Grand Island, N.Y.). All cells were maintained in DMEM supplemented with 10% fetal bovine serum. For the stable cell line expressing N-type channels, 25 μg/mL zeocin, 5 μg/mL blasticidin, and 25 μg/mL hygromycin were added as selection agents.
Whole-cell patch clamp recordings of calcium current. […] Briefly, the pipette solution consisted of […] Cs2SO4, 60 mM CsCl, 1 mM MgCl2, 10 mM 4-(2-hydroxyethyl)-1-piperazineethanesulfonic acid (HEPES) at pH 7.4. […] Patch pipettes were fabricated from borosilicate glass and pulled to a resistance of about 1 MΩ. Before each experiment, a stock solution consisting of 3 mg amphotericin-B dissolved into 50 μL anhydrous DMSO was made. […] Capacitive currents and passive membrane responses to voltage commands were subtracted from the data. Currents were amplified by an Axopatch 200B amplifier, filtered at 5 KHz, and digitized at 10 KHz for subsequent analysis using pClamp software (Axon Instruments/Molecular Devices; Sunnyvale, Calif.). […] To measure effects on calcium channel tail currents, the tail current integral was measured before and after application of a derivative, with the integral of each trace being normalized to its peak. All experiments were carried out at room temperature (22° C.). […] All other salts and chemicals were obtained from Sigma-Aldrich chemical company (St. Louis, Mo.).
(§1) Statistical Analysis. Statistical analysis was performed using either GraphPad Prism 5 (GraphPad Software, Inc.) or Origin 7 (OriginLab) software. For the dose-response analyses on Ca^2+ current, each concentration of the four different compounds was tested in 3-6 cells. […] All EC50 and IC50 values and their respective errors were determined by performing 100 iterations of a logistic function curve fit. Data are presented as mean±s.e.m. unless otherwise noted.

[2] = target: T2, mitogen-activated protein kinase (MAPK1(h)) (Homo sapiens, UniProt P27361); assay: Kinase inhibitory activity (EMD Millipore KinaseProfiler), MAPK1; assay type: biochemical; settings: 20 μM highest concentration used; read-out: MAPK EC50/IC50 affinities
T2 construct: purchased EMD Millipore KinaseProfiler service (Millipore UK Ltd.)
Experimental: (§2) Kinase inhibitory activity. Kinase inhibitory activities were determined using the EMD Millipore KinaseProfiler™ service (Millipore UK Ltd.). Each compound's kinase inhibitory activity was tested at three different concentrations (0.2 μM, 2 μM, and 20 μM) against five different kinases: Cdk1 cyclinB(h), cdk2 cyclinA(h), cdk5 p35(h), mitogen-activated protein kinase (MAPK1(h)) and myosin light-chain kinase (MLCK(h)).
(§3) Statistical Analysis. […] For the dose-response analyses on Ca^2+ current, each concentration of the four different compounds was tested in 3-6 cells. […] All EC50 and IC50 values and their respective errors were determined by performing 100 iterations of a logistic function curve fit.

[3] = target: T3, myosin light-chain kinase (MLCK(h)) (Homo sapiens, UniProt Q9H1R3); assay: Kinase inhibitory activity (EMD Millipore KinaseProfiler), MLCK; assay type: biochemical; settings: 20 μM highest concentration used; read-out: MLCK EC50/IC50 affinities
T3 construct: purchased EMD Millipore KinaseProfiler service (Millipore UK Ltd.)
Experimental: as §2, §3

[4] = target: T4, cdk2 cyclinA(h) (Homo sapiens, UniProt P24941); assay: Kinase inhibitory activity (EMD Millipore KinaseProfiler), cdk2; assay type: biochemical
T4 construct: purchased EMD Millipore KinaseProfiler service (Millipore UK Ltd.)
Experimental: as §2, §3

[5] = target: T5, Cdk1 cyclinB(h) (Homo sapiens, UniProt P06493); assay: Kinase inhibitory activity (EMD Millipore KinaseProfiler), cdk1; assay type: biochemical; settings: 20 μM highest concentration used; read-out: Cdk1 EC50/IC50 affinities
T5 construct: purchased EMD Millipore KinaseProfiler service (Millipore UK Ltd.)
Experimental: as §2, §1

[6] = target: T6, cdk5 p35(h) (Homo sapiens, UniProt Q00535); assay: Kinase inhibitory activity (EMD Millipore KinaseProfiler), cdk5; assay type: biochemical; settings: 20 μM highest concentration used; read-out: Cdk5 EC50/IC50 affinities
T6 construct: purchased EMD Millipore KinaseProfiler service (Millipore UK Ltd.)
Experimental: as §2, §1

[7] = Solubility in saline with 1% DMSO; assay type: physicochemical; settings: saline or isotonic, kinetic from dmso stock
[8] = Table 3, calcium channel agonist, read-out: N-type EC50/IC50 affinities
[9] = whole cell perforated patch clamp, deactivation (tail) currents from N-type channels, read-out: N-Type Ca^2+ Channel Activity EC50 +/− SEM

T1 sequence (Q02294 whole entry): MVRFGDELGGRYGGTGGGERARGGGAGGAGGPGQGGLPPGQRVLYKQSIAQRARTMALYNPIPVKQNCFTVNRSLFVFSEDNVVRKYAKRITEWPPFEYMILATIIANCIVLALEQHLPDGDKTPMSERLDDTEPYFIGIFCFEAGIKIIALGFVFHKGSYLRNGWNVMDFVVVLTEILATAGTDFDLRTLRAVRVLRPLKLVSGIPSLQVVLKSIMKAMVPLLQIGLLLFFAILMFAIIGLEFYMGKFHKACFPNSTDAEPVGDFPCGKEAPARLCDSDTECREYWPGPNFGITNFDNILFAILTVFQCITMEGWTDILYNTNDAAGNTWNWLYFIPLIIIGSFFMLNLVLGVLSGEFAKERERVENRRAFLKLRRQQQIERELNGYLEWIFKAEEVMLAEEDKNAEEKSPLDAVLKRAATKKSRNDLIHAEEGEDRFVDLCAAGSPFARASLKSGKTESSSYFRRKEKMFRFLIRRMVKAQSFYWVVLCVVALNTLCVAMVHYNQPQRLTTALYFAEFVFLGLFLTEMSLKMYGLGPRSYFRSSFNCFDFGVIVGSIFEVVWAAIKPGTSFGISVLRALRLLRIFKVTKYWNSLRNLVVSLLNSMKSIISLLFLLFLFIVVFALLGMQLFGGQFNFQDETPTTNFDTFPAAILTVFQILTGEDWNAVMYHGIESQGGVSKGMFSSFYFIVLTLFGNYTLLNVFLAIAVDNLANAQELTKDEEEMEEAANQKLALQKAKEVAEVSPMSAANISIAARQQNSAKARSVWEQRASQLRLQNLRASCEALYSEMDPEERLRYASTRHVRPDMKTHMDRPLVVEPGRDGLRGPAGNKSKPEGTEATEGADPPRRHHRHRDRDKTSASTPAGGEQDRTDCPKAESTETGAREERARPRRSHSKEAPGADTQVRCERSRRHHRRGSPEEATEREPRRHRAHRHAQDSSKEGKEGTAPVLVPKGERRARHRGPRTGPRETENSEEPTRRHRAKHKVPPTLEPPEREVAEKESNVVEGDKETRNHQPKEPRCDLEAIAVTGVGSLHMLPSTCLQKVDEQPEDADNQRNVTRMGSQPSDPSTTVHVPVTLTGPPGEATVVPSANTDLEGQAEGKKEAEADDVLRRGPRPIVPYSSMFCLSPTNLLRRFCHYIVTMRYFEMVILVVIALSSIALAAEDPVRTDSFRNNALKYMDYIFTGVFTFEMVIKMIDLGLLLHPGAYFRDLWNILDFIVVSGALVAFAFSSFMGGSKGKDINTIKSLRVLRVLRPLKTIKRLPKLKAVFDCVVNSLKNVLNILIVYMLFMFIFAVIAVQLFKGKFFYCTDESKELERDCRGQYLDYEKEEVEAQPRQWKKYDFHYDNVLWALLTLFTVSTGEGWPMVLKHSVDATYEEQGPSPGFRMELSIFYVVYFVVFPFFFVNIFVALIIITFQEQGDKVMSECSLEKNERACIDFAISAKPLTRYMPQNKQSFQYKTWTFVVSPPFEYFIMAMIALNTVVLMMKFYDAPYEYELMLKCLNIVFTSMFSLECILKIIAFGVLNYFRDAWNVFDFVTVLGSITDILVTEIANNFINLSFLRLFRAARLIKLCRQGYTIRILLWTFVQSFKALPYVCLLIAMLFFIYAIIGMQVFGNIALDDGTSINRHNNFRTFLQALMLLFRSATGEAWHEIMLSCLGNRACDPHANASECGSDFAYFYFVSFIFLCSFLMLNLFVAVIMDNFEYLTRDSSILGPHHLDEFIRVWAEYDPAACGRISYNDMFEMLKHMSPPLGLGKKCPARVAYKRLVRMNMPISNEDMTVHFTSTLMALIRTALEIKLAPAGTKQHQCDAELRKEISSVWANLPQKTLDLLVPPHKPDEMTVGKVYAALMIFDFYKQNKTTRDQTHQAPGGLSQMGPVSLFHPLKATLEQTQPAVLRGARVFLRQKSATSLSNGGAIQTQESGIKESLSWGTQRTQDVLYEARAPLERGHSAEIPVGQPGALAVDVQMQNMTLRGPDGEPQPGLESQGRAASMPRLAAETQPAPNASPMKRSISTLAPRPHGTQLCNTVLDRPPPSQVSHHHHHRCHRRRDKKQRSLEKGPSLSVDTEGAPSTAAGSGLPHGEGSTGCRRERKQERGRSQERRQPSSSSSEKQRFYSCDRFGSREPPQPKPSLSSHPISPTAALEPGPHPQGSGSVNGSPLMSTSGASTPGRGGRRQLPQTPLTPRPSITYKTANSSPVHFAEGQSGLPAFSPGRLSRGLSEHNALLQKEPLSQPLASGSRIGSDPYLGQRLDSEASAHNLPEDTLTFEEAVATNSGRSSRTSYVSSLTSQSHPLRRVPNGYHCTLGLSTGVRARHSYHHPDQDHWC
T2 sequence (P27361 whole entry): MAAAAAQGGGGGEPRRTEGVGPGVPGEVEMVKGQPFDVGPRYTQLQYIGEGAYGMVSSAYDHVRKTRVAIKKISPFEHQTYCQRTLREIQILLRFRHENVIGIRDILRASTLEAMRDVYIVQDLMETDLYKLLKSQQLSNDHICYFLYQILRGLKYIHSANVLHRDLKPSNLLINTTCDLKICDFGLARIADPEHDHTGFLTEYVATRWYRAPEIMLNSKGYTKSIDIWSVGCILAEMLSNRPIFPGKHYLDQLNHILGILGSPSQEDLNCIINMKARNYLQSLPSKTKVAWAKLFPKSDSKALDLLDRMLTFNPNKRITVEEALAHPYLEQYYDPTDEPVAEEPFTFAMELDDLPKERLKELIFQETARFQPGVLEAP
T5 sequence (P06493 whole entry): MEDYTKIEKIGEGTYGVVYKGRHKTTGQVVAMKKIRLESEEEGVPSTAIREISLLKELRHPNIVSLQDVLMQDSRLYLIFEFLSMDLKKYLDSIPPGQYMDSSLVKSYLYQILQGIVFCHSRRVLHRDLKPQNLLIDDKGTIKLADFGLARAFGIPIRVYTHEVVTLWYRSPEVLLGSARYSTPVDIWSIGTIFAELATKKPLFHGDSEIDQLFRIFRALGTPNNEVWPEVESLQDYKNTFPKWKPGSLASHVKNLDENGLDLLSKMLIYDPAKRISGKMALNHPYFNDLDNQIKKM
T5 sequence (P14635 whole entry partner): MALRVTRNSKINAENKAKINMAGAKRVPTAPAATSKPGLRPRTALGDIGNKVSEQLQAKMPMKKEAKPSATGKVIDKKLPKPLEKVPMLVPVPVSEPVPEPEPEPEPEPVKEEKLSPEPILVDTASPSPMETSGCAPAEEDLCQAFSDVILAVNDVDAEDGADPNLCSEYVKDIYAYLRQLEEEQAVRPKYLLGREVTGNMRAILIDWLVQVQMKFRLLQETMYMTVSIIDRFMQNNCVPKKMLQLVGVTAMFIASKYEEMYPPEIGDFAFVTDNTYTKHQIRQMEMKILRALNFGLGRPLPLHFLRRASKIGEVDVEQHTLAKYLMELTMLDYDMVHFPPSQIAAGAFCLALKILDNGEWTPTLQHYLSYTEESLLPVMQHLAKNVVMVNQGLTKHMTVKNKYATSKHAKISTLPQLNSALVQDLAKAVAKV
T6 sequence (Q00535 whole entry): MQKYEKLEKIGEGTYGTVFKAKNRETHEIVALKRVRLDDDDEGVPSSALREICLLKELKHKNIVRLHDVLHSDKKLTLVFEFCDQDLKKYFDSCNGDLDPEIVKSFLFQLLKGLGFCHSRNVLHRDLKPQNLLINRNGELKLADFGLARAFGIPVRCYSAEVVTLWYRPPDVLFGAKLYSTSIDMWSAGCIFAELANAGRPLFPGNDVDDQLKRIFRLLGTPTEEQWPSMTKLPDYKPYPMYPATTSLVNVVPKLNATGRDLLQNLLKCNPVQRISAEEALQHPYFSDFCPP
T6 sequence (Q15078 whole entry partner): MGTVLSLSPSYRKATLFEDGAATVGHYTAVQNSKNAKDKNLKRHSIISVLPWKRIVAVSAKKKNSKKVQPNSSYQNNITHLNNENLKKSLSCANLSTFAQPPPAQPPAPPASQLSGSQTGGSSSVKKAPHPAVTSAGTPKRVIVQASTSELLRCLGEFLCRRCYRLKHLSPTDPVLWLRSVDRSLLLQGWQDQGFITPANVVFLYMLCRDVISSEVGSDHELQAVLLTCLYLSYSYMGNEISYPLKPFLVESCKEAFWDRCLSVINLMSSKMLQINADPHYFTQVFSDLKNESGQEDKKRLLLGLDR

SMILES | agonist effect on the Ca^2+ channel tail currents (in words) ([1]; N-type) | increased Ca^2+ channel agonism vs. (R)-roscovitine ([1]; N-type) | EC50 [1, 8] | EC50 [1, 9] | IC50 [2] | IC50 [3] | decreased channel activity vs 13u [1] | maximal fold increase in the tail current integral relative to control ([1]; N-type channels) | IC50 ([4]; 20 μM highest concentration used, read-out: Cdk2 EC50/IC50 affinities) | EC50 ([4]; determined in duplicate at 0.2, 2, and 20 μM, read-out: Cdk2 Activity EC50 +/− SEM) | IC50 [5] | IC50 [6] | solubility [7]
CC[C@H](CO)Nc1nc(NCc2ccc(C)s2)c2ncn(C(C)C)c2n1 [Compound 13u, (R)-2-(9-Isopropyl-6-((5-methylthiophen-2-yl)methylamino)-9H-purin-2-ylamino)butan-1-ol] | strong agonist effect | ~4 fold | 11.3 ± 1.48 µM | 11.3 ± 1.48 µM | > 20 µM | 19.5 ± 8.65 µM | – | – | – | – | – | – | –
CC[C@H](CO)Nc1nc(NCc2ccc(C)s2)c2ncn(C)c2n1 [Compound 13w, (2R)-2-[(9-Methyl-6-{[(5-methylthiophen-2-yl)methyl]amino}-9H-purin-2-yl)amino]butan-1-ol] | strong agonist effect | – | 30 ± 1.87 µM | 30 ± 1.87 µM | > 20 µM | > 20 µM | ca. 3 fold | ~13 fold | 3.04 ± 0.17 µM | 3 µM | 10.5 ± 2.77 µM | 2.81 ± 0.91 µM | –
CC[C@H](CO)Nc1nc(NCc2ccccc2)c2ncn(C)c2n1 [Compound 13k, (R)-2-(6-(Benzylamino)-9-methyl-9H-purin-2-ylamino)butan-1-ol] | – | – | – | > 70 µM | – | – | – | – | – | – | – | – | ≤ 200 µM
